From article PMC10718593, “Rational design, synthesis, molecular modeling, biological activity, and mechanism of action of polypharmacological norfloxacin hydroxamic acid derivatives” (RSC Medicinal Chemistry, 2023) come the findings set out here.

Structures are written as SMILES. ≈ marks a conversion by molar mass, not a printed value.

The experiment deals with E. coli. Kind of experiment: microbe, parasite or virus in culture. The settings on record: Escherichia coli. More on the design: Minimal inhibitory concentration, bacterial growth inhibition. The procedure: Minimal inhibitory concentrations (MICs) were determined against a panel of test strains comprising Gram-negative, Gram-positive, and mycobacteria, including a fluoroquinolone-resistant, clinical isolate of E. coli and an MRSA strain that is also resistant to norfloxacin and ciprofloxacin (Table 1).
Molecule `CCn1cc(C(=O)NO)c(=O)c2cc(F)c(N3CCN(C)CC3)cc21` [11a] showed an MIC of 0.18 µM (≈ 0.0627 µg/mL).
`CCCCCN1CCN(c2cc3c(cc2F)c(=O)c(C(=O)NO)cn3CC)CC1` [11d, 1-ethyl-6-fluoro-1,4-dihydro-N-hydroxy-7-(4-pentylpiperazin-1-yl)-4-oxoquinoline-3-carboxamide] returned an MIC of 0.3 µM (≈ 0.121 µg/mL).
`CCn1cc(C(=O)NO)c(=O)c2cc(F)c(N3CCN(Cc4ccc(Cl)cc4)CC3)cc21` [11f]: the MIC came out at 1.08 µM (≈ 0.496 µg/mL).
As for `CCn1cc(C(=O)O)c(=O)c2cc(F)c(N3CCN(CN4CCCCC4)CC3)cc21` [19a, 1-ethyl-6-fluoro-1,4-dihydro-4-oxo-7-(4-((piperidin-1-yl)methyl)piperazin-1-yl)quinoline-3-carboxylic acid], the figure is 0.3 µM (≈ 0.125 µg/mL).
The molecule `CCn1cc(C(=O)NO)c(=O)c2cc(F)c(N3CCN(CN4CCOCC4)CC3)cc21` [20b] came in with an MIC of 0.28 µM (≈ 0.121 µg/mL).
The result for `CCn1cc(C(=O)NO)c(=O)c2cc(F)c(N3CCN(CN4C(=O)CCC4=O)CC3)cc21` [23a, 1-ethyl-6-fluoro-1,4-dihydro-N-hydroxy-4-oxo-7-(4-((2,5-dioxopyrrolidin-1-yl)methyl)piperazin-1-yl)quinoline-3-carboxamide] reads 0.56 µM (≈ 0.249 µg/mL); that for `CCn1cc(C(=O)O)c(=O)c2cc(F)c(N3CCN(CNc4ccc([N+](=O)[O-])cc4)CC3)cc21` [compound 25, 25], 0.266 µM (≈ 0.125 µg/mL).
